According to patent publication US7064207B2, “Androgen receptor antagonists” (Warner Lambert Company LLC, priority 2003, dated 2006):
Like-named read-outs stand apart in the source and are kept apart here.

Biological target: T1, androgen receptor (Homo sapiens, UniProt P10275)
T1 sequence (P10275 1-920 Q868H): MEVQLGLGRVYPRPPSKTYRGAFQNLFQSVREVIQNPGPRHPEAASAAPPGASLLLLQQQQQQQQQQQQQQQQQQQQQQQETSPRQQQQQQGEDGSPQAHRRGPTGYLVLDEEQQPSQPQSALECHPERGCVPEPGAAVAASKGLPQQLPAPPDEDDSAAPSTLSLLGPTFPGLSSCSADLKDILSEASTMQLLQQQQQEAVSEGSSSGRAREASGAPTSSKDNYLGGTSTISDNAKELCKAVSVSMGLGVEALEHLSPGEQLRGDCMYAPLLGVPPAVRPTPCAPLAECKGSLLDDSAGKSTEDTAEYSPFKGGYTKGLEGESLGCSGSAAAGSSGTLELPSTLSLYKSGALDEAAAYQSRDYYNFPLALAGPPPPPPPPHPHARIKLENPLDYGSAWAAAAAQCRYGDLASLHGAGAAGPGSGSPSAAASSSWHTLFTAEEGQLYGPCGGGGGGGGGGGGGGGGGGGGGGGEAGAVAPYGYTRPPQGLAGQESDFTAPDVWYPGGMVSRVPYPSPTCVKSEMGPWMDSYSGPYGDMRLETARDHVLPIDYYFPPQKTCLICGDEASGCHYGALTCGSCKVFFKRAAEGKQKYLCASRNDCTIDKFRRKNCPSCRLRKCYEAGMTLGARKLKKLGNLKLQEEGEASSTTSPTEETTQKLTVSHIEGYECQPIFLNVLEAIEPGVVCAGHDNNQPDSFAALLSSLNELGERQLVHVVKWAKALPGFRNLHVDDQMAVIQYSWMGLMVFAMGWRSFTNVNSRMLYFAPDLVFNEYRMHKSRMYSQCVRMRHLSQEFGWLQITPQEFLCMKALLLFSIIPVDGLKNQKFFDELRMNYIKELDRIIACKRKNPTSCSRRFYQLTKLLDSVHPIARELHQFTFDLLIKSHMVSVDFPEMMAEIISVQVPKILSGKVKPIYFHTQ
Assay: AR Antagonist Cell Assay (MMTV-luciferase reporter, inhibition of DHT induction)
Format: cell-based
Protocol: The compounds ability to antagonize the effects of androgen on the androgen receptor were determined in the protocol described immediately below.
Experimental Procedure for AR Antagonist Cell Assay
Cell line: MDA-MB453-MMTV clone 54–19. This cell line is a stable transfected cell line with MDA-MB453 cell background (human breast tumor cell expressing high level of androgen receptor). A MMTV minimal promoter containing ARE was first cloned in front of a firefly luciferase reporter gene. Then the cascade was cloned into transfection vector pUV120puro. Electroporation method was used for transfecting MDA-MB-453 cell. Puromycin resistant stable cell line was selected. Cell Culture Media and Reagents:
Culture medium: DMEM (high glucose, Gibco cat #: 11960-044), 10% FBS, and 1% L-glutamine
Plating medium: DMEM (phenol red free), 10% charcoal treated HyClone serum, 1% L-glutamine
Assay medium: DMEM (phenol red free), 1% charcoal treated HyClone serum, 1% L-glutamine, and 1% penicillin/streptomycin
3× luciferase buffer: 2% beta-mercaptoethanol, 0.6% ATP, 0.0135% luciferine in cell lysis buffer
• 1. Cells are maintained in culture medium, splitting cells when they reach 80–90% confluence • 2. To test compounds, 10,000 cells/well are plated to opaque 96 cell culture plate in 100 ul/well plating medium, culture for overnight at 37° C. in cell culture incubator • 3. Carefully remove plating medium, then add 80 ul/well of pre-warmed assay medium, add 10 ul/well testing compound (final concentration at 10 uM or 1 uM), incubate at 37° C. for 30 minutes • 4. Add 10 ul/well freshly prepared DHT (final concentration at 100 pM) to each well, incubate at 37° C. for 17 hr (overnight) • 5. Add 50 ul/well 3× luciferase buffer, incubate at room temperature for 5 minutes, then count on Luminometer The fold induction over background by 100 pM DHT in the absence of testing compounds is standardized as 100% and experimental result is expressed as percentage of inhibition by testing compounds.

[1] = MDA-MB453-MMTV clone 54-19 cells, 100 pM DHT, 17 hr, luciferase, read-out: Cell IC50

| Structure (SMILES) | IC50 [1] | IC50 (per procedure of Example 57, read-out: IC50) |
| --- | --- | --- |
| COC(=O)[C@@H]1CCCN1S(=O)(=O)c1ccc2[nH]c(=O)cc(C(F)(F)F)c2c1 [Example 19, 1-(2-Oxo-4-trifluoromethyl-1,2-dihydroquinoline-6-sulfonyl)pyrrolidine-2-carboxylic acid methylester] | 2240 nM | – |
| O=c1cc(C(F)(F)F)c2cc(S(=O)(=O)N3CCN(Cc4ccco4)CC3)ccc2[nH]1 [Example 17, 6-(4-Furan-2-ylmethylpiperazine-1-sulfonyl)-4-trifluoromethyl-1H-quinolin-2-one] | 2960 nM | – |
| O=c1cc(C(F)(F)F)c2cc(S(=O)(=O)N3CCCC(CO)C3)ccc2[nH]1 (stereo not drawn) [Example 25, 6-(3-Hydroxymethylpiperidine-1-sulfonyl)-4-trifluoromethyl-1H-quinolin-2-one] | 3540 nM | – |
| O=c1cc(C(F)(F)F)c2cc(S(=O)(=O)N3CCCC3CN3CCCC3)ccc2[nH]1 (stereo not drawn) [Example 41, 6-(2-Pyrrolidin-1-ylmethyl-pyrrolidine-1-sulfonyl)-4-trifluoromethyl-1H-quinolin-2-one] | 3600 nM | – |
| O=c1cc(C(F)(F)F)c2cc(S(=O)(=O)N3CCN(c4cnccn4)CC3)ccc2[nH]1 [Example 42, 6-(2,3,5,6-Tetrahydro-[1,2′]bipyrazinyl-4-sulfonyl)-4-trifluoromethyl-1H-quinolin-2-one] | > 10000 nM | – |
| CCOC(=O)C1CCN(S(=O)(=O)c2ccc3c(c2)c(C(F)(F)F)cc(=O)n3C)CC1 [Example 3, 1-(1-Methyl-2-oxo-4-trifluoromethyl-1,2-dihydroquinoline-6-sulfonyl)piperidine-4-carboxylic acid ethyl ester] | > 10000 nM | – |
| Cn1c(=O)cc(C(F)(F)F)c2cc(S(=O)(=O)N3CCCCCC3)ccc21 [Example 9, 6-(Azepane-1-sulfonyl)-1-methyl-4-trifluoromethyl-1H-quinolin-2-one] | > 10000 nM | – |
| O=c1cc(C(F)(F)F)c2cc(S(=O)(=O)N3CCCC4CCCCC43)ccc2[nH]1 (stereo not drawn) [Example 31, 6-(Octahydroquinoline-1-sulfonyl)-4-trifluoromethyl-1H-quinolin-2-one] | 440 nM | – |
| O=c1cc(C(F)(F)F)c2cc(S(=O)(=O)N3CCC4(CC3)OCCO4)ccc2[nH]1 [Example 22, 6-(1,4-Dioxa-8-azaspiro[4.5]decane-8-sulfonyl)-4-trifluoromethyl-1H-quinolin-2-one] | 1900 nM | – |
| O=c1cc(C(F)(F)F)c2cc(S(=O)(=O)N3CCC(O)(c4cccs4)CC3)ccc2[nH]1 [Example 16, 6-(4-Hydroxy-4-thiophen-2-ylpiperidine-1-sulfonyl)-4-trifluoromethyl-1H-quinolin-2-one] | 640 nM | – |
| O=c1cc(C(F)(F)F)c2cc(S(=O)(=O)N3CCN(CCOCCO)CC3)ccc2[nH]1 [Example 20, 6-{4-[2-(2-Hydroxyethoxy)-ethyl]piperazine-1-sulfonyl}-4-trifluoromethyl-1H-quinolin-2-one] | > 10000 nM | – |
| O=c1cc(C(F)(F)F)c2cc(S(=O)(=O)N3CCCCC3)ccc2[nH]1 [Example 2, 6-(Piperidine-1-sulfonyl)-4-trifluoromethyl-1H-quinolin-2-one] | – | 181 nM |
| O=c1cc(C(F)(F)F)c2cc(S(=O)(=O)N3CCCCCCC3)ccc2[nH]1 [Example 12, 6-(Azocane-1-sulfonyl)-4-trifluoromethyl-1H-quinolin-one] | 1230 nM | – |
| Cn1c(=O)cc(C(F)(F)F)c2cc(S(=O)(=O)N3CCCC4CCCCC43)ccc21 (stereo not drawn) [Example 8, 1-Methyl-6-(octahydro-quinoline-1-sulfonyl)-4-trifluoromethyl-1H-quinolin-2-one] | > 10000 nM | – |
| CC1CCCCN1S(=O)(=O)c1ccc2[nH]c(=O)cc(C(F)(F)F)c2c1 (stereo not drawn) [Example 37, 6-(2-Methylpiperidine-1-sulfonyl)-4-trifluoromethyl-1H-quinolin-2-one] | 1550 nM | – |
| O=c1cc(C(F)(F)F)c2cc(S(=O)(=O)N3CCC3)ccc2[nH]1 [Example 39, 6-(Azetidine-1-sulfonyl)-4-trifluoromethyl-1H-quinolin-2-one] | 430 nM | – |
| O=c1cc(C(F)(F)F)c2cc(S(=O)(=O)N3CCN(c4ccncc4)CC3)ccc2[nH]1 [Example 27, 6-(4-Pyridin-4-ylpiperazine-1-sulfonyl)-4-trifluoromethyl-1H-quinolin-2-one] | > 10000 nM | – |
| O=c1cc(C(F)(F)F)c2cc(S(=O)(=O)N3CCCCCC3)ccc2[nH]1 [Example 36, 6-(Azepane-1-sulfonyl)-4-trifluoromethyl-1H-quinolin-2-one] | 180 nM | – |
| O=c1cc(C(F)(F)F)c2cc(S(=O)(=O)N3CCC(N4CCCC4)CC3)ccc2[nH]1 [Example 13, 6-(4-Pyrrolidin-1-ylpiperidine-1-sulfonyl)-4-trifluoromethyl-1H-quinolin-2-one] | > 10000 nM | – |
| Cn1c(=O)cc(C(F)(F)F)c2cc(S(=O)(=O)N3CCN(CCOCCO)CC3)ccc21 [Example 6, 6-{4-[2-(2-Hydroxyethoxy)-ethyl]piperazine-1-sulfonyl}-1-methyl-4-trifluoromethyl-1H-quinolin-2-one] | > 10000 nM | – |
| O=C(CN1CCN(S(=O)(=O)c2ccc3[nH]c(=O)cc(C(F)(F)F)c3c2)CC1)N1CCCC1 [Example 23, 6-[4-(2-Oxo-2-pyrrolidin-1-ylethyl)piperazine-1-sulfonyl]-4-trifluoromethyl-1H-quinolin-2-one] | > 10000 nM | – |
| O=c1cc(C(F)(F)F)c2cc(S(=O)(=O)N3CCN(c4ccccc4)CC3)ccc2[nH]1 [Example 28, 6-(4-Phenylpiperazine-1-sulfonyl)-4-trifluoromethyl-1H-quinolin-2-one] | > 10000 nM | – |
| Cn1c(=O)cc(C(F)(F)F)c2cc(S(=O)(=O)N3CCCc4ccccc43)ccc21 [Example 11, 6-(3,4-Dihydro-2H-quinoline-1-sulfonyl)-1-methyl-4-trifluoromethyl-1H-quinolin-2-one] | > 10000 nM | – |
| CC1CN(S(=O)(=O)c2ccc3c(c2)c(C(F)(F)F)cc(=O)n3C)CC(C)O1 (stereo not drawn) [Example 10, 6-(2,6Dimethylmorpholine-4-sulfonly)-1-methyl-4-trifluoromethyl-1H-quinolin-2-one] | > 10000 nM | – |
| O=c1cc(C(F)(F)F)c2cc(S(=O)(=O)N3CCCC3CO)ccc2[nH]1 (stereo not drawn) [Example 30, 6-(2-Hydroxymethyl-pyrrolidine-1-sulfonyl)-4-trifluoromethyl-1H-quinolin-2-one] | 2170 nM | – |
| Cn1c(=O)cc(C(F)(F)F)c2cc(S(=O)(=O)N3Cc4ccccc4C3)ccc21 [Example 4, 6-(1,3-Dihydroisoindole-2-sulfonyl)-1-methyl-4-trifluoromethyl-1H-quinolin-2-one] | > 10000 nM | – |
| CC1CCN(S(=O)(=O)c2ccc3[nH]c(=O)cc(C(F)(F)F)c3c2)CC1 [Example 24, 6-(4-Methylpiperidine-1-sulfonyl)-4-trifluoromethyl-1H-quinolin-2-one] | 960 nM | – |
| O=c1cc(C(F)(F)F)c2cc(S(=O)(=O)N3CCN(CCc4cccs4)CC3)ccc2[nH]1 [Example 32, 6-[4-(2-Thiophen-2-ylethyl)piperazine-1-sulfonyl]-4-trifluoromethyl-1H-quinolin-2-one] | 2660 nM | – |
| CCN1CCN(S(=O)(=O)c2ccc3c(c2)c(C(F)(F)F)cc(=O)n3C)CC1 [Example 5, 6-(4-Ethylpiperazine-1-sulfonyl)-1-methyl-4-trifluoromethyl-1H-quinolin-2-one] | > 10000 nM | – |
| O=c1cc(C(F)(F)F)c2cc(S(=O)(=O)N3CCSC3)ccc2[nH]1 [Example 26, 6-(Thiazolidine-3-sulfonyl)-4-trifluoromethyl-1H-quinolin-2-one] | 160 nM | – |
